Reference: patent publication US6815464B2, “Carbamate compounds for use in the treatment of pain” (Ortho-McNeil Pharmaceutical, Inc., priority 2001, dated 2004)
Marks after values point to notes of the source that are not given here.

Test system: sciatic nerve loose ligation in rats
Assay: Bennett model (Chronic Constrictive Injury), thermal stimulation, paw-withdrawal latency
Assay type: in vivo
Settings: rat; for Antihyperalgesic Effectiveness (% Effective): vs vehicle control; for anti-hyperalgesic effect against a thermal stimulation challenge: p.o., summary statement in words
Source text: Bennett Model (Chronic Constrictive Injury)
The Bennett model consists of sciatic nerve loose ligation in rats (Bennett G J and Xie Y K, A peripheral mononeuropathy in rat that produces disorders of pain sensation like those seen in man, Pain, 1988, 33, 87-107). Although the pharmacological profile of the spontaneous pain, protective posture and allodynia (minor) is similar to that of clinical neuropathic pain, the loose chronic ligature of sciatic nerve in the Bennett model causes greater thermal hyperalgesia than mechanical allodynia due to its inflammatory mechanism. The loose ligation causes the constriction/swelling followed by inflammation at the ligation site, a condition most commonly associated with various types of pain. The behavioral response to the ligature is one of hyperalgesia. Thus, anti-hyperalgesia reduces chronic signs of pain hypersensitivity. Therefore, the Bennett model is used to evaluate antinociceptive pain (Cui J G, Possible role of inflammatory mediators in tactile hypersensitivity in rat models of mononeuropathy, Pain, 2000, 88 (3), 239-248; Lovell J A, Changes in Spinal Serotonin Turnover Mediate Age-Related Differences in the Behavioral Manifestations of Peripheral Nerve Injury, Pharmacol. Biochem. Behav., 2000, 66 (4), 873-878; Yasuda T, The novel analgesic compound OT-7100[5-n-butyl-7-(3,4,5-trimethoxybenzoylamino)pyrazolo[1,5a]pyrimidine] attenuates mechanical nociceptive responses in animal models of acute and peripheral neuropathic hyperalgesia, J. Pharmacol., 1999, 79 (1), 65-73; Toda K, Antinociceptive effects of neurotropin in a rat model of painful peripheral mononeuropathy, Life Sci., 1998, 62 (10), 913-921; Munglani R, Neuropeptide changes persist in spinal cord despite resolving hyperalgesia in a rat model of mononeuropathy, Brain Res., 1996, 743, 1 (2), 102-108).
[…] The anti-hyperalgesia effect was assessed at 30, 60, and 90 minutes after the oral administration.
Rats (180-220 g body weight) were anesthetized (sodium pentobarbital, 40 mg/kg, ip) and an incision was made at the mid-thigh level to expose the common left sciatic nerve. Four ligatures spaced 1 mm apart were loosely tied around the sciatic nerve. The wound was then sutured. The rats received an i.m. injection of 50,000 IU Penicillin and were allowed to recover after this procedure. At least one week after the surgery, when the chronic state was fully established, rats were consecutively submitted to thermal stimulation of both the non-lesioned and the lesioned hind-paws. The apparatus (UgoBasil, Reference: 7371) consists of 6 individual Plexiglas boxes (17×13×13 cm) placed upon an elevated glass floor. The rat was placed in the box and allowed to habituate for 10 minutes. A mobile infrared radiant source (setting 20) was then focused under the non-lesioned and lesioned hind-paws and the paw-withdrawal latencies in seconds were automatically recorded. The test was performed in a blinded fashion. The increased latency in treated animals as compared to control animals (those receiving only vehicle) was expressed as % of effectiveness of the drug. Data were analyzed by comparing the treated lesion group with controls using unpaired Student's t-test.

[1] = 10 mg/kg p.o., 60 min after administration
[2] = 10 mg/kg p.o., 90 min after administration
[3] = 30 mg/kg p.o., 30 min after administration
[4] = 30 mg/kg p.o., 60 min after administration
[5] = 30 mg/kg p.o., 90 min after administration
[6] = 300 mg/kg p.o., 30 min after administration
[7] = 300 mg/kg p.o., 60 min after administration
[8] = 300 mg/kg p.o., 90 min after administration

NC(=O)OC[C@H](OC(N)=O)c1ccccc1Cl [Formula (IIb)]
Antihyperalgesic Effectiveness (% Effective) [1]: 121% | Antihyperalgesic Effectiveness (% Effective) [2]: 50% | Antihyperalgesic Effectiveness (% Effective) [3]: 61% | Antihyperalgesic Effectiveness (% Effective) [4]: 318** % | Antihyperalgesic Effectiveness (% Effective) [5]: 182** % | Antihyperalgesic Effectiveness (% Effective) [6]: 48% | Antihyperalgesic Effectiveness (% Effective) [7]: 198** % | Antihyperalgesic Effectiveness (% Effective) [8]: 69% | anti-hyperalgesic effect against a thermal stimulation challenge: anti-hyperalgesic effect

NC(=O)OC[C@@H](O)c1ccccc1Cl [Formula (Ib)]
Antihyperalgesic Effectiveness (% Effective) [1]: 79% | Antihyperalgesic Effectiveness (% Effective) [2]: 53% | Antihyperalgesic Effectiveness (% Effective) [3]: 59% | Antihyperalgesic Effectiveness (% Effective) [4]: 109% | Antihyperalgesic Effectiveness (% Effective) [5]: 107% | Antihyperalgesic Effectiveness (% Effective) [6]: 43% | Antihyperalgesic Effectiveness (% Effective) [7]: 314** % | Antihyperalgesic Effectiveness (% Effective) [8]: 151% | anti-hyperalgesic effect against a thermal stimulation challenge: anti-hyperalgesic effect
